# Data as given in ChEMBL document CHEMBL3407464, “Novel 5-HT6 receptor antagonists/D2 receptor partial agonists targeting behavioral and psychological symptoms of dementia” (Eur J Med Chem, 2015).
# How the values were obtained:
# [1] = target: T1, 5-hydroxytryptamine receptor 6 (Homo sapiens, UniProt P50406); test: biochemical
# D(2) dopamine receptor [2] = target: T2, D(2) dopamine receptor (Homo sapiens, UniProt P14416); test: biochemical
# Rattus norvegicus [3] = test: Anti-depressant-like activity in intraperitoneally dosed 3-months old Wistar rat by Porsolt's forced swim test; format: functional; conditions: ip, read-out: MED
# Rattus norvegicus [4] = test: Anxiolytic activity in intraperitoneally dosed 3-months old Wistar rat by Vogel's conflict drinking test; format: functional; conditions: ip, read-out: MED
# [5] = target: T3, Muscarinic acetylcholine receptor M1 (Homo sapiens) (UniProt P11229); test: Inhibition of muscarinic M1 receptor (unknown origin) assessed as reduction in control ligand binding at 1 uM
# T3 sequence (whole entry): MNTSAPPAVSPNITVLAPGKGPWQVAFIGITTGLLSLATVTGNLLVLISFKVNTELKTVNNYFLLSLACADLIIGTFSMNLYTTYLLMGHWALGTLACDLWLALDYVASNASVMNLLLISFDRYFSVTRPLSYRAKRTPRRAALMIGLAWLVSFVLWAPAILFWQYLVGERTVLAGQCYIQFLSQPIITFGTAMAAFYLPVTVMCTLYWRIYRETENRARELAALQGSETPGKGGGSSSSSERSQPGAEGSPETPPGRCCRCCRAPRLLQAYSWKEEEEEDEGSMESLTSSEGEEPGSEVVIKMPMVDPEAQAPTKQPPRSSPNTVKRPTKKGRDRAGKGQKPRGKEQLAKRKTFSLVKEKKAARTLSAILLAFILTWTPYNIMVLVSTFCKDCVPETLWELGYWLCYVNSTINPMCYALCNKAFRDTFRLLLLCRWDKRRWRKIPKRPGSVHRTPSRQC
# hERG (KCNH2) = hERG (KCNH2) (Homo sapiens, UniProt Q12809); test: Inhibition of human ERG expressed in CHO cells assessed as reduction in channel current at holding potential of 0 mV at 1 uM by electrophysiological method; format: cell-based; conditions: CHO cells expressing human ERG
# Chain of hERG (KCNH2) (Q12809 whole entry): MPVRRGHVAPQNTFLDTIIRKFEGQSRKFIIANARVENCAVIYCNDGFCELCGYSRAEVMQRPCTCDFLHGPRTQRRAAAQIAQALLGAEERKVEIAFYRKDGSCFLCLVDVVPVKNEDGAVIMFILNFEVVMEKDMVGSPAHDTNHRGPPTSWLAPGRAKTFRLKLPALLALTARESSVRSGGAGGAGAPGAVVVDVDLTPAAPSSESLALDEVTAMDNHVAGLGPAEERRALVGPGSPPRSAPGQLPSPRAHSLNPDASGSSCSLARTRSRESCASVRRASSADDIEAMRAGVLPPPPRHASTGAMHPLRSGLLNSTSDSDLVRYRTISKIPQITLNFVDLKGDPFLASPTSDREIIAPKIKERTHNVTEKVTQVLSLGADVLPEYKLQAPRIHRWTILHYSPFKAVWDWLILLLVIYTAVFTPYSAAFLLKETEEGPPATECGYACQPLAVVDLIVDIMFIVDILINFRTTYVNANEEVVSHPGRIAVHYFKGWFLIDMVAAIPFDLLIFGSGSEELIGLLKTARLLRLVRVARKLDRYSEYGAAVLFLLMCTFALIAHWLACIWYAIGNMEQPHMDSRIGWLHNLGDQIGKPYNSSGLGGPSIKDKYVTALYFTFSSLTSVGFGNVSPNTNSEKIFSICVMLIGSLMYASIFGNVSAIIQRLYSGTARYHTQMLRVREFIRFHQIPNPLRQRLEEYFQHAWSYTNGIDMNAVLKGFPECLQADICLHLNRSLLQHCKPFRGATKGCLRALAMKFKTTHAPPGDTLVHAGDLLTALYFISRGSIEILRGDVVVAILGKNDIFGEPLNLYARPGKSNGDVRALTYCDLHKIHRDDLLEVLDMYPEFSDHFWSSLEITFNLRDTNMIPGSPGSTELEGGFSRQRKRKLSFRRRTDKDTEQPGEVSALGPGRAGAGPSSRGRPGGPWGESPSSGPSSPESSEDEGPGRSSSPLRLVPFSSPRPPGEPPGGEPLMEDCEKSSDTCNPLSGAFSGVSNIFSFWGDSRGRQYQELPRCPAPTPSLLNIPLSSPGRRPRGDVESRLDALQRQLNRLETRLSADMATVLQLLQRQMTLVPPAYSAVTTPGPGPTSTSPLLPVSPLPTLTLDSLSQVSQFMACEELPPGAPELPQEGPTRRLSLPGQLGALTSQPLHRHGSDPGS
# D(2) dopamine receptor [6] = target: T2, D(2) dopamine receptor; test: Agonist activity at human dopamine D2 receptor expressed in CHOK1 cells assessed as calcium mobilization at 1 uM by radiometric and luminescence plate counting method; format: functional, cell-based; conditions: CHO-K1
# D(2) dopamine receptor [7] = target: T2, D(2) dopamine receptor; test: Antagonist activity at human dopamine D2 receptor expressed in CHOK1 cells assessed as inhibition of apomorphine-induced calcium mobilization at 1 uM by radiometric and luminescence plate counting method; format: functional, cell-based; conditions: CHO-K1
# [8] = target: T1, 5-hydroxytryptamine receptor 6; test: Agonist activity at human 5-HT6 receptor expressed in CHOK1 cells assessed as calcium mobilization at 1 uM by radiometric and luminescence plate counting method; format: functional, cell-based; conditions: CHO-K1
# T2 sequence (P14416 whole entry): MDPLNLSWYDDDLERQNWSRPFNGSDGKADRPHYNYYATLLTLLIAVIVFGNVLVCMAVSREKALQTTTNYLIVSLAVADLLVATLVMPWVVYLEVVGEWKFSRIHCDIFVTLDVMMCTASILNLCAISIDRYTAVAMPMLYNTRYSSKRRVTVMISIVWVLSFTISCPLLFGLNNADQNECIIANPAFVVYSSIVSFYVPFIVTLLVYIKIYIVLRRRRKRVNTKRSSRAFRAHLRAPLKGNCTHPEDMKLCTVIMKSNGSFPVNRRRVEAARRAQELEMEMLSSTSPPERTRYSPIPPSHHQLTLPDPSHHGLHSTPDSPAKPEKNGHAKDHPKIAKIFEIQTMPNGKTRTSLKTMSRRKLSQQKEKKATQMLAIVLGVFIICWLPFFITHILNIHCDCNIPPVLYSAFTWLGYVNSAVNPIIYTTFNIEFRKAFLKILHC
# T1 sequence (P50406 whole entry): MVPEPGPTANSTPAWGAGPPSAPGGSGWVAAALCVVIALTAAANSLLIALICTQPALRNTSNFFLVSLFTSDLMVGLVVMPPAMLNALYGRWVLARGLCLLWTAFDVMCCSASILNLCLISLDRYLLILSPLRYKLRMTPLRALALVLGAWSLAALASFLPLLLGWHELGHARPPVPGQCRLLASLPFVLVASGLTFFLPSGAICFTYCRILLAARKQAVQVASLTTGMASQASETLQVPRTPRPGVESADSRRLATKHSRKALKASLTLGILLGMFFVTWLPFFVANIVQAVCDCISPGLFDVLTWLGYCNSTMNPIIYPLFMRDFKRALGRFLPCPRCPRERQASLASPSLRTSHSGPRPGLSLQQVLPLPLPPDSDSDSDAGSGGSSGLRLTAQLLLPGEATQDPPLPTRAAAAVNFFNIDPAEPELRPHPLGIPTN
SMILES,Ki [1] [µM],Ki (D(2) dopamine receptor [2]) [µM],further results
O=S(=O)(c1ccccc1)n1ccc2c(N3CCN(CCCCOc4ccccc4)CC3)cccc21,0.016,0.062,
O=C1CCc2ccc(OCCCN3CCN(c4cccc5c4ccn5S(=O)(=O)c4ccccc4)CC3)cc2N1,0.0023,0.023,
O=C1CCc2ccc(OCCCCN3CCN(c4cccc5c4ccn5Cc4ccccc4F)CC3)cc2N1,0.045,0.011,
O=C1CCc2ccc(OCCCCNCCc3cn(Cc4ccccc4)c4ccccc34)cc2N1,0.15,0.07,
O=S(=O)(c1ccccc1)n1ccc2c(N3CCN(CCCOc4ccccc4)CC3)cccc21,0.0076,0.29,
O=C1CCc2ccc(OCCCCN3CC=C(c4cn(Cc5ccccc5)c5ccccc45)CC3)cc2N1,0.022,0.073,
COc1ccc(NS(=O)(=O)c2sc3ccc(Cl)cc3c2C)cc1N1CCNCC1,,,minimal effective dose (Rattus norvegicus [3]): 10 mg/kg; minimal effective dose (Rattus norvegicus [4]): 3 mg/kg
NC(=O)c1ccccc1OCCCN1CC=C(c2cn(S(=O)(=O)c3ccccc3)c3ccccc23)CC1,0.033,0.16,
CC(C)Oc1ccccc1OCCCN1CCN(c2cccc3c2ccn3S(=O)(=O)c2ccccc2)CC1,0.0017,0.11,
O=S(=O)(c1ccccc1)n1ccc2c(N3CCN(CCCOc4ccc(F)cc4)CC3)cccc21,0.0054,0.067,
NC(=O)c1ccccc1OCCCN1CC=C(c2cn(Cc3ccccc3)c3ccccc23)CC1,0.59,0.031,
CC(C)Oc1ccccc1OCCCCN1CCN(c2cccc3c2ccn3S(=O)(=O)c2ccccc2)CC1,0.011,0.12,
NC(=O)c1ccccc1OCCCNCCc1cn(Cc2ccccc2)c2ccccc12,0.68,0.27,
O=C1CCc2ccc(OCCCCN3CCN(c4cccc5c4ccn5Cc4ccccc4)CC3)cc2N1,0.013,0.02,inhibition [5]: 99%; inhibition at 1 µM (hERG (KCNH2)): 14%; inhibition (D(2) dopamine receptor [6]): 42%; inhibition (D(2) dopamine receptor [7]): 97%; inhibition [8]: 0%
O=S(=O)(c1ccccc1)n1ccc2c(N3CCN(CCCOc4ccc5ccoc5c4)CC3)cccc21,0.0038,0.22,
O=C1CCc2ccc(OCCCCNCCc3cn(S(=O)(=O)c4ccccc4)c4ccccc34)cc2N1,0.052,0.12,
NC(=O)c1ccccc1OCCCN1CCN(c2cccc3c2ccn3Cc2ccccc2F)CC1,0.023,,

SMILES,Ki [1] [µM],Ki (D(2) dopamine receptor [2]) [µM],further results
NC(=O)c1ccccc1OCCCN1CCN(c2cccc3c2ccn3Cc2cccc(Cl)c2)CC1,0.0126,0.076,
O=C1CCc2ccc(OCCCCN3CCN(c4cccc5c4ccn5Cc4cccc(F)c4)CC3)cc2N1,0.02,0.0061,inhibition [5]: 94%; inhibition at 1 µM (hERG (KCNH2)): 18%; inhibition (D(2) dopamine receptor [6]): 39%; inhibition (D(2) dopamine receptor [7]): 99%; inhibition [8]: 0%
O=C1CCc2ccc(OCCCCN3CCC(c4cn(Cc5ccccc5)c5ccccc45)CC3)cc2N1,0.15,0.0048,
NC(=O)c1ccccc1OCCCN1CCC(c2cn(Cc3ccccc3)c3ccccc23)CC1,0.49,0.029,
NC(=O)c1ccccc1OCCCN1CCN(c2cccc3c2ccn3Cc2ccccc2)CC1,0.024,0.095,
NC(=O)c1ccccc1OCCCN1CCN(c2cccc3c2ccn3Cc2ccc(F)cc2)CC1,0.083,0.044,
O=C1CCc2ccc(OCCCCN3CCN(c4cccc5c4ccn5Cc4cccc(Cl)c4)CC3)cc2N1,,,inhibition [5]: 78%; inhibition at 1 µM (hERG (KCNH2)): 9%; inhibition (D(2) dopamine receptor [6]): 37%; inhibition (D(2) dopamine receptor [7]): 99%; inhibition [8]: 0%
NC(=O)c1ccccc1OCCCN1CCN(c2cccc3c2ccn3Cc2cccc(F)c2)CC1,0.0099,0.045,
NC(=O)c1ccccc1OCCCN1CCC(c2cn(S(=O)(=O)c3ccccc3)c3ccccc23)CC1,0.057,0.062,
O=C1CCc2ccc(OCCCCN3CCN(c4cccc5c4ccn5Cc4ccc(F)cc4)CC3)cc2N1,0.1,0.012,
NC(=O)c1ccccc1OCCCNCCc1cn(S(=O)(=O)c2ccccc2)c2ccccc12,0.062,0.18,
O=C1CCc2ccc(OCCCCN3CC=C(c4cn(S(=O)(=O)c5ccccc5)c5ccccc45)CC3)cc2N1,0.052,0.04,
O=S(=O)(c1ccccc1)n1ccc2c(N3CCN(CCCCOc4ccc(F)cc4)CC3)cccc21,0.0069,0.047,
O=C1CCc2ccc(OCCCCN3CCN(c4cccc5c4ccn5S(=O)(=O)c4ccccc4)CC3)cc2N1,0.0004,,inhibition [5]: 37%; inhibition at 1 µM (hERG (KCNH2)): 13%; inhibition (D(2) dopamine receptor [6]): 48%; inhibition (D(2) dopamine receptor [7]): 100%; inhibition [8]: 0%
O=C1CCc2ccc(OCCCCN3CCC(c4cn(S(=O)(=O)c5ccccc5)c5ccccc45)CC3)cc2N1,0.14,0.014,
NC(=O)c1ccccc1OCCCCN1CCN(c2cccc3c2ccn3S(=O)(=O)c2ccccc2)CC1,0.0028,0.078,
